Starred links: 1 amine or outer side, 2 acyl side, 3 side chain; linkers in the order of their positions; H or OH if unused. Positions of bridges follow the written chain, without caps; N, C: chain ends. Non-standard residues stand in square brackets, D forms with d. Residues, ends and D or L forms follow the SMILES beside them. Groups on a side chain read outwards from the residue. *: point of attachment. Me3N+(CH2)2O(CH2)2O(CH2)2CO = C[N+](C)(C)CCOCCOCCC(=O)*; Trp(7-Me) = Cc1cccc2c(C[C@H](N)C(=O)O)c[nH]c12; 3Pal(5-Me) = Cc1cncc(C[C@H](N)C(=O)O)c1; CH2CH2OCH2CH2NMe3+ = C[N+](C)(C)CCOCC*; γGlu = O=C(O)[C@H](CCC(=O)[*:2])N[*:1]; 2Nal = N[C@@H](Cc1ccc2ccccc2c1)C(=O)O; AEF = NCCOc1ccc(C[C@H](N)C(=O)O)cc1; X19 = C[N+](C)(C)C[C@@H](CC(=O)O)N*; 3Pal = N[C@@H](Cc1cccnc1)C(=O)O; Myristoyl = CCCCCCCCCCCCCC(=O)*; Lys(Me) = CNCCCC[C@H](N)C(=O)O; NMeK = CN[C@@H](CCCCN)C(=O)O; Pen = CC(C)(S)[C@H](N)C(=O)O; Thp = NC1(C(=O)O)CCOCC1; X92 = COCC[N+](C)(C)CC*; X3 = C[N+](C)(C)CCCCC*; AEEA = NCCOCCOCC(=O)O; Sar = CNCC(=O)O

This series in a line: Exposed Polar Surface Area (EPSA). The series is classed as physicochemical. Particulars: SFC on Chirex 3014 column; sample 1 mM DMSO stock; read-out: EPSA. A digest of the protocol: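 SFC retention on a Chirex 3014 (S-valine/(R)-1-(α-naphthyl)ethylamine) column at 35 °C, 4 mL/min, 14 MPa outlet, 5–60% methanol/20 mM ammonium formate gradient in CO2. Retention times converted to EPSA (Å²) via linear calibration with 8 standards; samples from 1 mM DMSO stock, run in duplicate.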
As for `CC(=O)NCCCC[C@@H]1NC(=O)[C@H](Cc2c[nH]c3c(C)cccc23)NC(=O)[C@H]([C@@H](C)O)NC(=O)[C@H](CC(N)=O)NC(=O)[C@@H](NC(=O)C(COCCOCC[N+](C)(C)C)NC(C)=O)C(C)(C)SSC(C)(C)[C@@H](C(=O)N[C@@H](Cc2ccc(OCCCCC[N+](C)(C)C)cc2)C(=O)N[C@@H](Cc2ccc3ccccc3c2)C(=O)NC2(C(=O)N[C@@H](CCC(=O)O)C(=O)N[C@@H](CC(N)=O)C(=O)N[C@@H](Cc3cccnc3)C(=O)N(C)CC(N)=O)CCOCC2)NC1=O` (mixture of isomers) [compound 555, MeCO-APEG2Ser(RS)-Pen(3)-N-T-7MeW-K(Ac)-Pen(3)-TMAPF-2Nal-THP-E-N-3Pya-Sar-CONH2], the EPSA was 171 A^2.

With `CC(=O)NCCCC[C@@H]1NC(=O)[C@H](Cc2c[nH]c3c(C)cccc23)NC(=O)[C@H]([C@@H](C)O)NC(=O)[C@H](CC(N)=O)NC(=O)[C@@H](NC(=O)[C@@H](CCCNC(=N)N)NC(=O)CCOCCOCC[N+](C)(C)C)C(C)(C)SSC(C)(C)[C@@H](C(=O)N[C@@H](Cc2ccc(OCCCCC[N+](C)(C)C)cc2)C(=O)N[C@@H](Cc2ccc3ccccc3c2)C(=O)NC2(C(=O)N[C@@H](CCC(=O)O)C(=O)N[C@@H](CC(N)=O)C(=O)N[C@@H](Cc3cncc(C)c3)C(=O)N(C)CC(N)=O)CCOCC2)NC1=O` [compound 542, cPEG3aCO-r-Pen(3)-N-T-7MeW-K(Ac)-Pen(3)-TMAPF-2Nal-THP-E-N-5MePyridinAla-Sar-CONH2] ({Me3N+(CH2)2O(CH2)2O(CH2)2CO}-[dR][Pen]NT[Trp(7-Me)]K(Ac)[Pen]Y(X3)[2Nal][Thp]EN[3Pal(5-Me)][Sar]-NH2; disulfide 2-7), the EPSA came out at 180 A^2.

Take `COCC[N+](C)(C)CCOc1ccc(C[C@H](NC(=O)[C@H]2NC(=O)[C@H](CCCCN(C)C(C)=O)NC(=O)[C@H](Cc3c[nH]c4c(C)cccc34)NC(=O)[C@H]([C@@H](C)O)NC(=O)[C@H](CC(=O)N(C)C)NC(=O)[C@@H](NC(=O)CCOCCOCC[N+](C)(C)C)C(C)(C)SSC2(C)C)C(=O)N[C@@H](Cc2ccc3ccccc3c2)C(=O)NC2(C(=O)N[C@@H](CCCCN(C)C(C)=O)C(=O)N[C@@H](CC(N)=O)C(=O)N[C@@H](Cc3cccnc3)C(=O)N(C)CC(=O)N(C)C)CCOCC2)cc1` [compound 228, cPEG3aCO-Pen(3)-N(N(Me)2)-T-7MeW-K(NMeAc)-Pen(3)-mPEG2TMA2F-2Nal-THP-K(NMeAc)-N-3Pya-Sar-CON(Me)2] ({Me3N+(CH2)2O(CH2)2O(CH2)2CO}-[Pen]D(NMe2)T[Trp(7-Me)][Lys(Me)](Ac)[Pen]Y(X92)[2Nal][Thp][Lys(Me)](Ac)N[3Pal][Sar]-NMe2; disulfide 1-6): the EPSA amounted to 139 A^2.

Regarding `CC(=O)N[C@@H]1C(=O)N[C@@H](CC(=O)N(C)C)C(=O)N[C@@H]([C@@H](C)O)C(=O)N[C@@H](Cc2c[nH]c3c(C)cccc23)C(=O)N[C@@H](CCCCN(C)C(C)=O)C(=O)N[C@H](C(=O)N[C@@H](Cc2ccc(OCCCCC[N+](C)(C)C)cc2)C(=O)N[C@@H](Cc2ccc3ccccc3c2)C(=O)NC2(C(=O)N[C@@H](COCCOCC[N+](C)(C)C)C(=O)N[C@@H](CC(N)=O)C(=O)N[C@@H](Cc3cccnc3)C(=O)N(C)CC(=O)N(C)C)CCOCC2)C(C)(C)SSC1(C)C` [compound 275, MeCO-Pen(3)-N(N(Me)2)-T-7MeW-K(NMeAc)-Pen(3)-TMAPF-2Nal-THP-APEG2Ser-N-3Pya-Sar-CON(Me)2] (Ac-[Pen]D(NMe2)T[Trp(7-Me)][Lys(Me)](Ac)[Pen]Y(X3)[2Nal][Thp]S(CH2CH2OCH2CH2NMe3+)N[3Pal][Sar]-NMe2; disulfide 1-6), the EPSA amounted to 149 A^2.

As to `CC(=O)NCCCC[C@@H]1NC(=O)[C@H](Cc2c[nH]c3c(C)cccc23)NC(=O)[C@H]([C@@H](C)O)NC(=O)[C@H](CC(N)=O)NC(=O)[C@@H](NC(C)=O)C(C)(C)SSC(C)(C)[C@@H](C(=O)N[C@@H](Cc2ccc(OCCN)cc2)C(=O)N[C@@H](Cc2ccc3ccccc3c2)C(=O)NC2(C(=O)N[C@@H](CCC(=O)N[C@H](CC(=O)O)C[N+](C)(C)C)C(=O)N[C@@H](CC(N)=O)C(=O)N[C@@H](Cc3cccnc3)C(=O)N(C)CC(N)=O)CCOCC2)NC1=O` [compound 127] (Ac-[Pen]NT[Trp(7-Me)]K(Ac)[Pen][AEF][2Nal][Thp]E(X19)N[3Pal][Sar]-NH2; disulfide 1-6), the EPSA is 179 A^2.

Consider `CCCCCCCCCCCCCC(=O)N[C@@H](CCC(=O)NCCOCCOCC(=O)NCCOCCOCC(=O)NCCCC[C@@H]1NC(=O)[C@H](Cc2c[nH]c3c(C)cccc23)NC(=O)[C@H]([C@@H](C)O)NC(=O)[C@H](CC(=O)N(C)C)NC(=O)[C@@H](NC(=O)CCOCCOCC[N+](C)(C)C)C(C)(C)SSC(C)(C)[C@@H](C(=O)N[C@@H](Cc2ccc(OCCCCC[N+](C)(C)C)cc2)C(=O)N[C@@H](Cc2ccc3ccccc3c2)C(=O)NC2(C(=O)N[C@@H](CCCCN(C)C(C)=O)C(=O)N[C@@H](CC(N)=O)C(=O)N[C@@H](Cc3cccnc3)C(=O)N(C)[C@@H](CCCCNC(=O)COCCOCCNC(=O)COCCOCCNC(=O)CC[C@H](NC(=O)CCCCCCCCCCCCC)C(=O)O)C(N)=O)CCOCC2)NC1=O)C(=O)O` [compound 355, cPEG3aCO-Pen(3)-N(N(Me)2)-T-7MeW-K(PEG2PEG2gEC14)-Pen(3)-TMAPF-2Nal-THP-K(NMeac)-N-3Pya-NMeK(PEG2PEG2gEC14)-CONH2] ({Me3N+(CH2)2O(CH2)2O(CH2)2CO}-[Pen]D(NMe2)T[Trp(7-Me)]K([AEEA-AEEA-γGlu-Myristoyl])[Pen]Y(X3)[2Nal][Thp][Lys(Me)](Ac)N[3Pal][NMeK]([AEEA-AEEA-γGlu-Myristoyl])-NH2; disulfide 1-6), for which the EPSA was found to be 186 A^2.

The values above are taken from US20260022143A1, “Cyclic Peptide Inhibitors of IL-23” (JANSSEN PHARMACEUTICA NV, priority 2022, published 2026).
